Measured values: publication PMC11272598, “RG7774 (Vicasinabin), an orally bioavailable cannabinoid receptor 2 (CB2R) agonist, decreases retinal vascular permeability, leukocyte adhesion, and ocular inflammation in animal models” (Frontiers in Pharmacology, 2024)
Like-named read-outs stand apart in the source and are kept apart here.

Assays:
[1] = target: T1, Mouse MAGL (Mus musculus, UniProt O35678); assay: Mouse MAGL assay (brain); format: biochemical; settings: RG7774 10 µM; read-out: Mean ± SEM % inhibition of control, Mouse MAGL
T1 construct: Mouse brain or human U937 cell extracts (ATCC, Manassas, VI, USA); from tissue; host or cells: mouse brain, 100,000 g supernatant
T1 sequence (O35678 whole entry): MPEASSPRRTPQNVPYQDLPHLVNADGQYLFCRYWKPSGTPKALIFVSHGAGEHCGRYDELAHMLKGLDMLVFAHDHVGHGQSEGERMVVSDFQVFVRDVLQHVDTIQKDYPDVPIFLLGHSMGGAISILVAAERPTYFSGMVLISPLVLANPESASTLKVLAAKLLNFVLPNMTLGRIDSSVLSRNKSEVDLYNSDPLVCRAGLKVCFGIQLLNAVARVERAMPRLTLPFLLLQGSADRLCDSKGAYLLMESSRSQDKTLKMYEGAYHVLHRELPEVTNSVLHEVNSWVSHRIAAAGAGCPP
Description: The final supernatant was incubated with [^3H]-2-OG (10 µM) (ARC, MO, USA) at 37°C for 30 min as previously described, and reactions were stopped with a 2:1 (v/v) mixture of chloroform/methanol. [^3H]-glycerol release in the aqueous phase was measured by scintillation counting. […] Human supernatant (100 µg) was preincubated for 15 min at RT with 8 different concentrations of RG7774 (0.1-500 µM) in the incubation medium.

[2] = Hepatocyte clearance; format: in vitro ADME; settings: read-out: Hepatocyte CL
Description: For animals, hepatocyte suspension cultures were either freshly prepared by liver perfusion or from cryopreserved hepatocyte batches (BioIVT, NY, USA). For humans, commercially-available, pooled (5–20 donors), cryopreserved human hepatocytes from nontransplantable liver tissues were used (BioIVT). Suspension cultures were incubated in Nunc U96 PP-0.5 mL plates (Nunc Natural, 267245) in a Thermo Forma incubator (Fischer Scientific, Wohlen, Switzerland) equipped with Variomag® Teleshake shakers (Sterico, Wangen, Switzerland) to maintain cell dispersion. The cell culture medium was William’s media supplemented with glutamine, antibiotics, insulin, dexamethasone, and 10% FCS. RG7774 (1 μM) were incubated in 96-well plates containing suspension cultures (1 × 10^6 hepatocytes/mL [~1 mg/mL protein concentration]), with each well containing a total volume of 100 μL. Plates were shaken at 900 rpm for up to 2 h in 5% CO2 at 37 °C. Reactions were quenched after 3, 6, 10, 20, 40, 60, and 120 min with 200 μL methanol containing an internal standard. Samples were cooled, centrifuged, and analyzed by LC-MS/MS. Log peak area ratios (test compound peak area/internal standard peak area) or concentrations were plotted against incubation time using a linear fit to the data with emphasis on the initial rate of compound disappearance.

[3] = Aqueous stability assay (ASTA); format: physicochemical; settings: 37 °C, 2 h
Description: Aqueous solutions of RG7774 were prepared at 5 different pHs (pH 1-10) from DMSO stock solutions, added to incubation plates and shaken for 10 min at 37 °C. Solutions were transferred to a filter plate (Millipore MSGVN2250, pore size 0.22 μm) and filtered into V-bottom plates (ABGene, AB-0800) prior to heat-sealing. The procedure was repeated, increasing the 37 °C incubation time by 2 h. Samples were analyzed by HPLC at 0 and 2 h. A compound was classified as unstable if < 90% of the initial concentration was detected after 2 h.

[4] = target: GAL2 (Homo sapiens, UniProt O43603); format: binding
GAL2, sequence (O43603 whole entry): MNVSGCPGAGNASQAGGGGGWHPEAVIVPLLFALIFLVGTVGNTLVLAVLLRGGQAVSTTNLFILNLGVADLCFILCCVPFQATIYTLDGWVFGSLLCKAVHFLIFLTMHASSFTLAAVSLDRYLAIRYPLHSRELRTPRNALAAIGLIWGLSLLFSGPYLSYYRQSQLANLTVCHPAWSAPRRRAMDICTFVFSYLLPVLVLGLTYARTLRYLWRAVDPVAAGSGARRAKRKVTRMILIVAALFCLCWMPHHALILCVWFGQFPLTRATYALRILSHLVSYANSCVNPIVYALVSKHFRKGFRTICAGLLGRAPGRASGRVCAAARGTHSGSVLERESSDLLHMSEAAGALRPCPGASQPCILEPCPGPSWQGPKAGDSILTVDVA
From the text: Supplement Table1.docx, table 3: Supplementary Table S3. RG7774 binding to non-CB1R/CB2R receptors, ion channels, transporters, and enzymes (CEREP, Celle l’Evescault, France; http://www.cerep.fr). | column: % inhibition of control SB (n = 2)

## Cn1nnnc1Cn1nnc2c(N3CC[C@H](O)C3)nc(C(C)(C)C)nc21 [RG7774, (S)-1-(5-tert-butyl-3-[(1-methyl-1H-tetrazol-5-yl)methyl]-3H-[1,2,3]triazolo[4,5-d]pyrimidin-7-yl)pyrrolidin-3-ol]
[1]
  inhibition at 10 µM: 2.7 ± 11.7%
[2]; human, pooled cryopreserved human hepatocytes in suspension
  hepatocyte CLint at 1 µM: 1.7 µL/min/1e6 cells
[2]; mouse
  hepatocyte CLint at 1 µM: 49.3 µL/min/1e6 cells
[2]; rat
  hepatocyte CLint at 1 µM: 37.9 µL/min/1e6 cells
[3]
  Chemical stability in aqueous media at pH 1–10: stable
[4]
  % inhibition of control SB (n = 2): –4.0%
